Read-outs that look alike come from different tables or passages of the source.
How the values were obtained:
[1] = Application as additive in liquid shaving soap
From the text: The mix was stirred with hard soap pieces remaining undissolved and placed for 50 seconds at 600 W in a microwave oven. […] The mixture was placed for 80 seconds in a microwave at 600 W. Thereafter the resulting mixture was hand-blended and filled into a jar for testing and storage.

[2] = tested on: total bacteria count (TBC); conditions: forage, 0.5 wt % topical, r.t., 31 days
Experimental: (§1) All tests were conducted under equal conditions. […] The additives were dosed at 0.5 wt % and were applied topically to the samples. […] The preservation effectiveness was established by testing for total bacteria count (TBC), yeast/fungi count and Enterobacteria/β-Glucoronidase-positive-Enterobacteria (E/β).

yeast/fungi = assay: Silage preservation: yeast/fungi count; conditions: forage, 0.5 wt % topical, r.t., 31 days
Experimental: as §1

[3] = tested on: Enterobacteria/β-Glucoronidase-positive-Enterobacteria (E/β); assay: Silage preservation: E/β count; conditions: forage, 0.5 wt % topical, r.t., 31 days
Experimental: as §1

[4] = pH measurement of 0.1 M aqueous solutions; format: physicochemical; conditions: 0.1 M in millipore water, r.t., average of at least three measurements
From the text: For the pH measurements, a Seven2Go portable pH meter S2 (pH measuring-range: −2 to 20; resolution: 0.01) with an InLab Ultra Micro-ISM electrode (measuring range: pH −1 to pH 11; low temperature membrane glass type; ceramic diaphragm; reference system with Ag^+ ion trap by argenthal) as well as with an in-lab routine pH electrode (measuring range: pH 0 to pH 14; ceramic diaphragm; reference system with Ag^+ ion trap by argenthal) from Mettler-Toledo AG (Analytical, Switzerland) was used.
For sake of comparability, compounds of the same loading ratio n=2, which is 2:1 of the loaded carboxylic acid with respect to the carrier carboxylic acid, were selected for this analysis. […] The analytes were dissolved in millipore water, stirred for 5 minutes in an airtight vial to perform the pH measurements thereafter at r.t. All measurements were performed at 0.1 molar (M) concentration of the samples, which is 0.1 mol per liter (mol/L).
For sake of reliability, every result stated is the average of at least three single measurements. […] The numbers 1-73 (nr., first row) are used as an assignment for the 73 pairs, comprising the compound of invention (third row), the corresponding carrier carboxylic acid (fourth row) and the loaded carboxylic acid (fifth row), as used in the FIG. 6.

[5] = Thermal analysis (TGA/DTA); format: physicochemical
Experimental: Thermal analysis was carried out with a Linseis STA 1600 simultaneous thermal analyzer to determine simultaneous changes of weight (TGA signal) and caloric measurable transformations (DTA signal) in a temperature range between r.t. and 300° C.

[6] = mean particle diameter

| Compound | stability (>24 h) [1] | TBC [2] | yeast count (yeast/fungi) | E/β count [3] | pH values compound [4] | other results |
| --- | --- | --- | --- | --- | --- | --- |
| O=C([O-])CC(O)(CC(=O)[O-])C(=O)[O-].O=C([O-])CC(O)(CC(=O)[O-])C(=O)[O-].[Ca+2].[Ca+2].[Ca+2] [calcium citrate] |  |  |  |  |  | stability (>24 h) ([1]; liquid shaving soap, additive 1 or 2 % wt): yes |
| O=C(O)CC(O)C(=O)O (stereo not drawn) [malic acid] | no |  |  |  |  |  |
| O=CO.O=CO.O=C[O-].O=C[O-].[Ca+2] [CaFo-HFo [2], calcium formate with loaded formic acid] |  | dramatically reduce | dramatically reduce | dramatically reduce | 5.19 |  |
| CCC(=O)O.CCC(=O)O.O=C[O-].O=C[O-].[Ca+2] [CaFo-HProp [2], calcium formate with loaded propionic acid] |  | dramatically reduce | dramatically reduce | dramatically reduce | 5.79 | growth of yeasts (yeast/fungi): completely inhibit; growth of β-Glucoronidase-positive-Enterobacteria (especially E. coli) [3]: completely inhibit |
| CC(O)C(=O)O.CC(O)C(=O)O.O=C([O-])c1ccccc1O.O=C([O-])c1ccccc1O.[Ca+2] [CaSal-HLac [2], calcium salicylate with loaded lactic acid] | yes |  |  |  | 3.43 |  |
| CC(=O)O.CC(=O)O.CC(=O)[O-].CC(=O)[O-].[Ca+2] [CaAc-HAc [2], calcium acetate with loaded acetic acid] |  |  |  |  | 5.05 | thermal stability of the carrier carboxylic acid salt ([5]; TGA/DTA between r.t. and 300° C.): ≤ 300 °C; first loss of weight (TGA) ([5]; partially hydrated sample prior drying, 25-135° C.): −7.0 wt % of total weight; second stage of weight-loss (TGA) ([5]; partially hydrated sample prior drying, 135-300° C.): 11.7 wt % of the total weight; overall loss of weight (TGA) ([5]; partially hydrated sample, between r.t. and 300° C.): 18.74%; dav [6]: 221 μm; dav ([6]; listed as CaAc—HAc [2]): approximately 220 μm |
